Experimental data reported in the supplement of paper PMC10307832.

How the values were obtained:
Assay in all cases: relative viability (nuclei count vs DMSO), 5 days (fraction); higher = more cells survive
[1] = compound: C1CCC(CC1)N(CCNCCC2=C3C(=C(C=C2)O)NC(=O)CO3)C(=O)CCNCCC4=CC(=C(C=C4)Cl)Cl [AZ505] + C[C@@H](Oc1cc(-c2cnn(C3CCNCC3)c2)cnc1N)c1c(Cl)ccc(F)c1Cl [Crizotinib] (partner 1 µM)
Procedure, shortened: (§1)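 Lung cancer cell lines were pin-tool dosed in 1536-well plates on the day after seeding, with either a lone drug or a fixed anchor-drug dose plus five library-drug doses (not always all listed) in √10 steps. Nuclei were counted on 4× images after 5 days. Relative viability is the ratio of treated-well to vehicle-well nuclei counts, with each value a median of duplicate plates.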

[2] = compound: C1CCC(CC1)N(CCNCCC2=C3C(=C(C=C2)O)NC(=O)CO3)C(=O)CCNCCC4=CC(=C(C=C4)Cl)Cl [AZ505] + CCNC(=O)c1noc(-c2cc(C(C)C)c(O)cc2O)c1-c1ccc(CN2CCOCC2)cc1 [Luminespib] (partner 0.01 µM)
Procedure, shortened: as §1

[3] = compound: Cn1c(=O)n(-c2ccc(C(C)(C)C#N)cc2)c2c3cc(-c4cnc5ccccc5c4)ccc3ncc21 [Dactolisib] + COc1cccc2cc(-c3nc([C@H]4CC[C@H](C(=O)O)CC4)n4ncnc(N)c34)[nH]c12 [OSI-027] (partner 0.5 µM)
Procedure, shortened: as §1

[4] = compound: C1CCC(CC1)N(CCNCCC2=C3C(=C(C=C2)O)NC(=O)CO3)C(=O)CCNCCC4=CC(=C(C=C4)Cl)Cl [AZ505] + Nc1nc2[nH]cc(CCc3ccc(C(=O)N[C@@H](CCC(=O)O)C(=O)O)cc3)c2c(=O)[nH]1 [Pemetrexed] (partner 0.2 µM)
Procedure, shortened: as §1

| Cell Line | relative viability ([1]; first compound 0.08 µM) | relative viability ([1]; first compound 0.253 µM) | relative viability ([1]; first compound 0.8 µM) | relative viability ([1]; first compound 2.53 µM) | relative viability ([1]; first compound 8 µM) | relative viability ([2]; first compound 0.08 µM) | relative viability ([2]; first compound 0.253 µM) | relative viability ([2]; first compound 0.8 µM) | relative viability ([2]; first compound 2.53 µM) | relative viability ([2]; first compound 8 µM) | relative viability ([3]; first compound 0.002 µM) | relative viability ([3]; first compound 0.006325 µM) | relative viability ([3]; first compound 0.02 µM) | relative viability ([3]; first compound 0.06325 µM) | relative viability ([3]; first compound 0.2 µM) | relative viability ([4]; first compound 0.08 µM) | relative viability ([4]; first compound 0.8 µM) | relative viability ([4]; first compound 2.53 µM) | relative viability ([4]; first compound 8 µM) | relative viability ([4]; first compound 0.253 µM) |
| --- | --- | --- | --- | --- | --- | --- | --- | --- | --- | --- | --- | --- | --- | --- | --- | --- | --- | --- | --- | --- |
| NCI-H596 | 0.922 | 0.495 | 0.799 | 0.972 | 0.985 | 0.928 | 0.917 | 0.976 | 0.992 | 0.965 | 0.694 | 0.653 | 0.692 | 0.399 | 0.315 | 0.463 | 0.469 | 0.564 | 0.483 |  |
| A-427 | 0.771 | 0.829 | 0.766 | 0.837 | 0.944 | 0.708 | 1.02 | 0.789 | 1.01 | 1.38 | 0.59 | 0.461 | 0.47 | 0.375 | 0.419 | 0.964 | 0.904 | 0.948 | 1.01 | 0.961 |
| EMC-BAC-2 | 0.791 | 0.911 | 0.698 | 0.735 | 0.761 | 1.14 | 1.13 | 1.23 | 1.03 | 1.19 | 0.395 | 0.439 | 0.405 | 0.346 | 0.296 | 0.412 | 0.417 | 0.499 | 0.451 | 0.491 |
| NCI-H441 | 0.615 | 0.823 | 0.995 | 0.699 | 0.738 | 0.248 | 0.388 | 0.313 | 0.308 | 0.445 | 0.915 | 0.725 | 0.716 | 0.44 | 0.344 | 0.254 | 0.278 | 0.308 | 0.262 | 0.272 |
| LCLC-103H | 0.868 | 1.03 | 0.987 | 1.01 | 0.969 | 0.914 | 0.961 | 0.877 | 0.877 | 0.997 | 0.509 | 0.5 | 0.465 | 0.519 | 0.431 | 0.453 | 0.457 | 0.519 | 0.448 | 0.491 |
| NCI-H1703 | 0.532 | 0.716 | 0.58 | 0.58 | 0.917 |  |  |  |  |  |  |  |  |  |  |  |  |  |  |  |
| Calu-6 | 0.735 | 0.806 | 0.785 | 0.589 | 0.748 |  |  |  |  |  |  |  |  |  |  |  |  |  |  |  |
| HCC-366 | 0.418 | 0.365 | 0.551 | 0.396 | 0.534 |  |  |  |  |  | 0.924 | 0.863 | 0.889 | 0.469 | 0.556 | 0.142 | 0.179 | 0.2 | 0.16 | 0.174 |
| NCI-H727 | 0.683 | 0.829 | 0.738 | 0.805 | 0.827 | 0.319 | 0.336 | 0.328 |  | 0.421 | 0.519 | 0.435 | 0.538 | 0.47 | 0.4 |  |  |  |  |  |
| HCC-78 |  | 0.397 | 0.373 | 0.341 | 0.389 |  |  |  |  |  | 0.439 | 0.411 | 0.376 | 0.396 | 0.332 |  | 0.916 | 0.904 | 0.918 |  |
| EBC-1 | 0.21 | 0.198 | 0.178 | 0.203 | 0.184 |  |  |  |  |  |  |  |  |  |  |  |  |  |  |  |
| NCI-H1623 |  |  |  |  |  | 0.604 | 0.46 | 0.58 | 0.503 | 0.681 | 0.49 | 0.431 | 0.46 | 0.38 | 0.396 |  |  |  |  |  |
| NCI-H1648 |  |  |  |  |  |  |  |  |  |  | 0.246 | 0.286 | 0.279 | 0.235 | 0.263 |  | 0.679 | 0.79 | 0.953 | 0.743 |
| NCI-H522 |  |  |  |  |  | 1.12 | 1.19 | 1.2 | 1.33 | 1.18 | 0.719 | 0.728 | 0.881 | 0.671 | 0.539 | 1 | 1.03 | 1.22 | 0.808 | 1.04 |
| NCI-H1793 |  |  |  |  |  | 0.199 | 0.173 | 0.179 |  | 0.167 | 0.317 | 0.26 | 0.257 | 0.212 | 0.157 | 0.863 | 0.878 | 0.851 | 1.06 | 0.756 |
| NCI-H1299 | 0.959 | 1.06 | 0.969 | 0.926 | 0.988 |  |  |  |  |  |  |  |  |  |  |  |  |  |  |  |
| NCI-H1395 |  |  |  |  |  | 0.618 | 0.752 | 0.693 | 0.696 | 0.66 | 0.666 | 0.646 | 0.709 | 0.647 | 0.521 | 0.919 | 0.733 | 0.969 | 1.04 |  |
| NCI-H2342 |  |  |  |  |  | 0.792 | 0.662 | 0.814 | 0.687 | 0.738 | 0.684 | 0.67 | 0.572 | 0.695 | 0.518 | 0.711 | 0.836 | 0.776 | 0.853 | 0.737 |
| A549 | 0.661 | 0.849 | 0.692 | 0.776 | 0.608 |  |  |  |  |  |  |  |  |  |  |  |  |  |  |  |
| SW 900 |  |  |  |  |  | 0.193 | 0.183 | 0.137 | 0.195 | 0.167 | 0.495 | 0.419 | 0.474 | 0.244 | 0.213 | 0.495 | 0.494 | 0.498 | 0.511 | 0.516 |
| IA-LM | 0.695 | 0.769 | 0.861 | 0.75 | 1.07 |  |  |  |  |  |  |  |  |  |  |  |  |  |  |  |
| ABC-1 | 1.01 | 1.12 | 1.19 | 1.21 | 1.24 | 0.865 | 0.472 | 0.524 | 0.839 | 0.717 | 0.494 | 0.519 | 0.569 | 0.43 | 0.349 |  |  |  |  |  |
